What was measured:
DBA/2 mice = test: anticonvulsant protection (DBA2 mouse model of anticonvulsant efficacy, sound-induced seizures); format: in vivo; design: Anticonvulsant % Protect 2 hr: concentration or dose not given beside the values; settings: for Anticonvulsant % Protect 2 hr: Table 1; for Anticonvulsant % Protect* 2h / Anticonvulsant % Protect* 1h: dosed at 30 mg/kg PO
[1] = anxiolytic activity relative to pregabalin (model not given); format: in vivo; settings: dosed at 30 mg/kg PO; percent of pregabalin activity

## CC[C@@H](C)[C@H](CN)CC(=O)O
DBA/2 mice
  Anticonvulsant % Protect 2 hr: 0%

## CC(C)[C@@H](C)C(CN)CC(=O)O (some centres unmarked)
DBA/2 mice
  Anticonvulsant % Protect 2 hr: 100%

## CCC(CC)C(CN)CC(=O)O (centres unmarked)
DBA/2 mice
  Anticonvulsant % Protect 2 hr: 20%

## CCC(C)CC(CN)CC(=O)O (centres unmarked)
DBA/2 mice
  Anticonvulsant % Protect 2 hr: 100%

## CCCC(C)CC(CN)CC(=O)O (centres unmarked) [3-Aminomethyl-5-methyloctanoic acid, 3-Aminomethyl-5-methyl-octanoic acid]
DBA/2 mice
  Anticonvulsant % Protect* 2h: 100%

## CC(C)[C@H](C)[C@H](CN)CC(=O)O [(3R,4S)-3-Aminomethyl-4,5-dimethyl-hexanoic acid]
[1]
  Anxiolytic Activity* % Preg. Act.: 58%

## CC(C)[C@@H](C)[C@@H](CN)CC(=O)O [(3S,4R)3-Aminomethyl-4,5-dimethyl-hexanoic acid]
[1]
  Anxiolytic Activity* % Preg. Act.: 12%

## CCC[C@@H](C)C[C@H](CN)CC(=O)O.Cl [(3S,5R)-3-Aminomethyl-5-methyl-octanoic acid hydrochloride]
DBA/2 mice
  Anticonvulsant % Protect* 1h: 100%
  Anticonvulsant % Protect* 2h: 100%

## CCCCC[C@H](C)C[C@H](CN)CC(=O)O [(3S,5S)-3-Aminomethyl-5-methyl-decanoic acid]
DBA/2 mice
  Anticonvulsant % Protect* 1h: 0%

## CC(C)CC(CN)CC(=O)O (centres unmarked) [reference compound]
DBA/2 mice
  Anticonvulsant % Protect 2 hr: 100%

From patent EP1840117A1, “Mono- and disubstituted 3-propyl gamma-aminobutyric acids” (Warner-Lambert Company LLC, priority 1999, dated 2000)
